From ChEMBL document CHEMBL1828556, “Synthesis, hypnotic properties and molecular modeling studies of 1,2,7,9-tetraaza-spiro[4.5]dec-2-ene-6,8,10-triones” (Eur J Med Chem, 2011)

Columns and labels:
Mus musculus [1] = assay: Potentiation of sodium thiopental-induced hypnotic/sedative activity in Albino mouse assessed as time elapsed between injection of sodium thiopental and loss of righting reflex at 25 mg/kg, ip administered 1 hr prior challenge (Rvb =2.66 +/- 0.23 mins); assay type: functional; conditions: route intraperitoneal
Mus musculus [2] = assay: Potentiation of sodium thiopental-induced hypnotic/sedative activity in Albino mouse assessed as sleeping time at 25 mg/kg, ip administered 1 hr prior challenge relative to control; assay type: functional; conditions: route intraperitoneal
Mus musculus [3] = assay: Toxicity in Albino mouse assessed as toxic symptoms at 500 mg/kg, ip after 24 hrs; assay type: organism-based; design: dose 500 mg/kg, route intraperitoneal; conditions: in vivo
Mus musculus [4] = assay: Toxicity in Albino mouse assessed as toxic symptoms at 250 mg/kg, ip after 24 hrs; assay type: organism-based; design: dose 250 mg/kg, route intraperitoneal; conditions: in vivo
Mus musculus [5] = assay: Toxicity in Albino mouse assessed as mortality at 250 mg/kg, ip after 24 hrs; assay type: organism-based; design: dose 250 mg/kg, route intraperitoneal; conditions: in vivo
Mus musculus [6] = assay: Toxicity in Albino mouse assessed as toxic symptoms at 750 mg/kg, ip after 24 hrs; assay type: organism-based; design: dose 750 mg/kg, route intraperitoneal; conditions: in vivo
Mus musculus [7] = assay: Toxicity in Albino mouse assessed as mortality at 750 mg/kg, ip after 24 hrs; assay type: organism-based; design: dose 750 mg/kg, route intraperitoneal; conditions: in vivo
Mus musculus [8] = assay: Toxicity in Albino mouse assessed as mortality at 500 mg/kg, ip after 24 hrs; assay type: organism-based; design: dose 500 mg/kg, route intraperitoneal; conditions: in vivo

| SMILES | Time (Mus musculus [1]) [min] | Activity (Mus musculus [2]) [%] | Activity (Mus musculus [3]) | Activity (Mus musculus [4]) | Activity (Mus musculus [5]) | Activity (Mus musculus [6]) | Activity (Mus musculus [7]) | Activity (Mus musculus [8]) |
| --- | --- | --- | --- | --- | --- | --- | --- | --- |
| CN1C(=O)N(C)C(=O)C2(C1=O)C(c1ccccc1)C(c1ccccc1)=NN2c1ccccc1 (stereo not drawn) | 3 | 1.3 |  |  |  |  |  |  |
| CN1C(=O)N(C)C(=O)C2(C1=O)C(c1ccccc1)C(c1ccccc1)=NN2c1cccc(Cl)c1 (stereo not drawn) | 1.85 | 192 |  |  |  |  |  |  |
| CN1C(=O)N(C)C(=O)C2(C1=O)C(c1ccc(Cl)cc1)C(c1ccccc1)=NN2c1ccccc1 (stereo not drawn) | 3.47 | 20 |  |  |  |  |  |  |
| CN1C(=O)N(C)C(=O)C2(C1=O)C(c1ccc(Cl)cc1)C(c1ccccc1)=NN2c1cccc(Cl)c1 (stereo not drawn) | 2.3 | 340.9 | Non-toxic | Non-toxic | Non-toxic | Non-toxic | Non-toxic | Non-toxic |
| CN1C(=O)N(C)C(=O)C2(C1=O)C(c1ccc(Cl)cc1Cl)C(c1ccccc1)=NN2c1ccccc1 (stereo not drawn) | 2.12 | 501.2 | Non-toxic | Non-toxic | Non-toxic | Non-toxic | Non-toxic | Non-toxic |
| CN1C(=O)N(C)C(=O)C2(C1=O)C(c1ccc(F)cc1)C(c1ccccc1)=NN2c1ccccc1 (stereo not drawn) | 2 | 358.6 | Non-toxic | Non-toxic | Non-toxic | Non-toxic | Non-toxic | Non-toxic |
| Cc1ccc(C2C(c3ccccc3)=NN(c3ccccc3)C23C(=O)N(C)C(=O)N(C)C3=O)cc1 (stereo not drawn) | 2.92 | 311.3 | Non-toxic | Non-toxic | Non-toxic | Non-toxic | Non-toxic | Non-toxic |
| COc1ccc(C2C(c3ccccc3)=NN(c3ccccc3)C23C(=O)N(C)C(=O)N(C)C3=O)cc1 (stereo not drawn) | 5.25 | -20.3 |  |  |  |  |  |  |
| CN1C(=O)N(C)C(=O)C2(C1=O)C(c1ccc(N(C)C)cc1)C(c1ccccc1)=NN2c1ccccc1 (stereo not drawn) | 2.91 | 299.4 | Non-toxic | Non-toxic | Non-toxic | Non-toxic | Non-toxic | Non-toxic |
| CN1C(=O)N(C)C(=O)C2(C1=O)C(c1cccs1)C(c1ccccc1)=NN2c1ccccc1 (stereo not drawn) | 1.79 | -25.8 |  |  |  |  |  |  |
| Cc1ccc(C2C(c3ccccc3)=NN(c3ccccc3)C23C(=O)N(C)C(=O)N(C)C3=O)o1 (stereo not drawn) | 2.66 | 904 | Non-toxic | Non-toxic | Non-toxic | Non-toxic | Non-toxic | Non-toxic |
